In brackets after ≈: the same amount, converted by molar mass. Read-outs that look alike come from different tables or passages of the source.

A short description of data set [1]: Evaporation (weight loss) of DEET/IPA/clay samples under nitrogen. It is filed as physicochemical. The settings on record: no added IPA, over 12 hours under nitrogen, relative to amount of DEET. On the procedure:
The samples prepared above were held at room temperature in the hood under nitrogen over a 12 hour period. Evaporation rates were measured every hour.
Samples of the HDTMA clay/DEET/IPA matrix were mixed as illustrated in Example 1. Volatile components of the matrix were evaporated using a constant flow of nitrogen over 12 hours in fume hood. Control samples of DEET with IPA only and DEET alone were subjected to the same conditions as the DEET with HDTMA treated clay.
Weight loss of the samples over 12 hours was used as a measure of the extent of evaporation. Samples were weighed at the beginning of the experiment (time 0) and at hourly intervals thereafter. Reported values are the difference between the original weight of formulation and the weight at sampling time, expressed as a percentage of the amount of IPA added to each. For the controls without IPA, percent weight loss was calculated relative to the amount of DEET in the original sample.

Data set [2] can be described thus: Visual (turbidity) solubility of DEET in IPA and water. The settings on record: aqueous with cosolvent or surfactant or cyclodextrin, thermodynamic from solid, read-out: limit of DEET solubility. It is filed as physicochemical. On the procedure: Homogenous solutions of different concentrations of DEET with varying percentages of IPA in water were prepared and subsequently incorporated into the clay. Solutions of 30%, 40%, and 50% IPA in water were prepared. DEET was completely miscible with IPA, which was also completely miscible with water. The addition of DEET to the solvent mixture was therefore expected to produce a single homogenous phase within the limits of its solubility. Solutions were prepared consisting of the solvent systems and varying concentrations of DEET, from 12.5-200 mg/ml. DEET was added to the solvent in increments of 50 mg until the solution appeared turbid after vortexing for 5 seconds. Turbidity was used as a marker for saturation.
Once various solvents were mixed with DEET, turbidity of the samples was used as a marker for saturation. All DEET spiking solutions were below saturation point.

For data set [3] the following is noted: within two hours of administration; cited from earlier work.
For data set [4] the following is noted: 24 hours after administration of the last dose; cited from earlier work.

Turning to `CCN(CC)C(=O)c1cccc(C)c1` [DEET, N,N-diethyl-m-toluamide], the weight loss in data set [1] came to 4%. Further, the solubility at 5 seconds in data set [2] (30% IPA in water, 30% IPA in water) turned out to be 115 mg/mL (≈ 601 mM); in data set [2] (40% IPA in water, 40% IPA in water), 200 mg/mL (≈ 1050 mM); in data set [2] (50% IPA in water, 50% IPA in water) it was 200 mg/mL (≈ 1050 mM). In addition, in data set [3], the “dose administered topically that is absorbed” value was “Approximately 17%”. Further, in data set [4], the “absorbed dose recovered in the urine” value is listed as approximately 90%.

(Values after patent publication US20030161866A1, “Novel pharmaceutical formulation to limit or delay surface absorption” (priority 2000, published 2003).)
